Consider 10 compounds from patent US20260337153A1, “IONIZABLE AMINE LIPIDS” (Intellia Therapeutics, Inc., priority 2023, published 2026).

Common to all, as to type: physicochemical
Data set [1] can be described thus: LNP encapsulation efficiency of RNA (Ribogreen fluorescence assay). Conditions: sgRNA:mRNA 1:2. How it is done:
(§1) LNP compositions are analyzed for average particle size, polydispersity index (pdi), total RNA content, encapsulation efficiency of RNA, and zeta potential. LNP compositions may be further characterized by lipid analysis, AF4-MALS, NTA, and/or cryo-EM.
Encapsulation efficiency is calculated as (Total RNA−Free RNA)/Total RNA. A fluorescence-based assay (Ribogreen®, ThermoFisher Scientific) is used to determine total RNA concentration and free RNA. LNP samples are diluted appropriately with 1×TE buffer containing 0.2% Triton-X 100 to determine total RNA or 1×TE buffer to determine free RNA. Standard curves are prepared by utilizing the starting RNA solution used to make the compositions and diluted in 1×TE buffer+/−0.2% Triton-X 100. Diluted RiboGreen® dye (according to the manufacturer's instructions) is then added to each of the standards and samples and allowed to incubate for approximately 10 minutes at room temperature, in the absence of light. A SpectraMax M5 Microplate Reader (Molecular Devices) is used to read the samples with excitation, auto cutoff and emission wavelengths set to 488 nm, 515 nm, and 525 nm respectively. Total RNA and free RNA are determined from the appropriate standard curves. Alternatively, the total RNA concentration can be determined by a reverse-phase ion-pairing (RP-IP) HPLC method. Triton X-100 is used to disrupt the LNPs, releasing the RNA. The RNA is then separated from the lipid components chromatographically by RP-IP HPLC and quantified against a standard curve using UV absorbance at 260 nm.
(§2) In vivo editing efficiency for materials delivered with formulations including various amine lipid (or ionizable lipid) compounds in Experiments 1 through 14 as described in Tables 3 and 4 was assessed. Editing was measured using G000534 (SEQ ID NO: 5) which targets the rat TTR gene. Lipids described above were assessed for efficacy through in vivo editing experiments. LNPs were formulated at a 1:2 w/w ratio of sgRNA (SEQ ID NO: 5) and Cas9 mRNA (SEQ ID NO: 3). In Experiments 1 through 13, lipid components of the LNP are formulated in a molar ratio of 50% ionizable lipid, 38% cholesterol, 9% DSPC, and 3% PEG2K-DMG. In Experiment 14, lipid components of the LNP are formulated in a molar ratio of 50% ionizable lipid, 38% cholesterol, 9% DSPC, and 3% C13 Ether. The final LNPs used in different in vivo editing experiments were characterized to determine the encapsulation efficiency (% E), polydispersity index (PDI), and average particle size (Z-avg and number mean) according to the analytical methods provided above. The pKa values of each of the following ionizable lipids were also measured to be in the range of about 5.8 to about 7.6.
(§3) In vivo editing efficiency for materials delivered with formulations including various combinations of amine lipid (or ionizable lipid) and PEG lipid compounds was assessed as described in Tables 5 and 6. Editing was measured using G000534 (SEQ ID NO: 5) which targets the rat TTR gene. Lipids described above were assessed for efficacy through in vivo editing experiments. LNPs were formulated at a 1:2 w/w ratio of sgRNA (SEQ ID NO: 5) and Cas9 mRNA (SEQ ID NO:3). Lipid components of the LNP are formulated in a molar ratio of 50% ionizable lipid, 38% cholesterol, 9% DSPC, and 3% of various PEG lipids (e.g., PEG2K-DMG, C13 Ether, C14 Ether). The final LNPs used in different in vivo editing experiments were characterized to determine the encapsulation efficiency (% E), polydispersity index (PDI), and average particle size (Z-avg and number mean) according to the analytical methods provided above. The pKa values of each of the following ionizable lipids were also measured to be in the range of about 5.8 to about 7.6.
In vivo editing efficiency for materials delivered with formulations including various amine lipid (or ionizable lipid) compounds as described in Tables 7 and 8 was assessed. […]

Data set [2] in a line: LNP average particle size and polydispersity by dynamic light scattering. Conditions: sgRNA:mRNA 1:2. How it is done: Dynamic Light Scattering (“DLS”) is used to characterize the polydispersity index (“pdi” or “PDI”) and size of the LNPs of the present disclosure. DLS measures the scattering of light that results from subjecting a sample to a light source. PDI, as determined from DLS measurements, represents the distribution of particle size (around the mean particle size) in a population, with a perfectly uniform population having a PDI of zero.
as §1
Average particle size and polydispersity are measured by dynamic light scattering (DLS) using a Malvern Zetasizer DLS instrument. LNP samples were diluted with PBS buffer prior to being measured by DLS. Z-average diameter (“Z-avg”) which is an intensity-based measurement of average particle size was reported along with number average diameter (“number mean”) and PDI. A Malvern Zetasizer instrument is also used to measure the zeta potential of the LNP. Samples are diluted 1:17 (50 μL into 800 μL) in 0.1×PBS, pH 7.4 prior to measurement.
as §2, §3
In vivo editing efficiency for materials delivered with formulations including various amine lipid (or ionizable lipid) compounds as described in Tables 7 and 8 was assessed. Editing was measured using G000534 (SEQ ID NO: 5) which targets the rat TTR gene. Lipids described above were assessed for efficacy through in vivo editing experiments. LNPs were formulated at a 1:2 w/w ratio of sgRNA (SEQ ID NO: 5) and Cas9 mRNA (SEQ ID NO: 3). Lipid components of the LNP were formulated in a molar ratio of 50% ionizable lipid, 38% cholesterol, 9% DSPC, and 3% C13 Ether. […]

Data set [3] in a line: pKa of unformulated amine lipid by TNS fluorescence. Conditions: sodium phosphate buffer; Table 2; unformulated amine lipid, TNS; read-out: Lipid pKa. The procedure:
The pKa of each amine lipid was determined according to the method in Jayaraman, et al. (Angew Chem Int Ed Engl 51(34), 2012, 8529-8533) with the following adaptations. The pKa was determined for unformulated amine lipid in ethanol. Lipid stock solutions (2.94 mM) were diluted into Sodium Phosphate Buffers (0.1 M, Boston Bioproducts) of different pH (pH-range: 4.5-9.0) yielding a final lipid concentration of approx. 100 μM. The test samples were supplemented with TNS {6-(p-Toluidino)-2-naphthalenesulfonic acid sodium salt}, incubated and the fluorescence intensity was measured using excitation and emission wavelengths of 321 nm and 448 nm, respectively. The recorded data were normalized and the respective pKa values were derived from sigmoidal fitting.

Where [4] appears, read: Table 3, Experiments 1-13, LNP 50% ionizable lipid, 38% cholesterol, 9% DSPC, 3% PEG2K-DMG.
[5] abbreviates: Table 3, Experiment 14, LNP with 3% C13 Ether.

“And” between values parts separate entries of the source, which are not always exact repeats. Equal values may be shown once.

Regarding `CCCCCCCCOC(CCC(=O)OCC(COC(=O)CCC(OCCCCCCCC)OCCCCCCCC)COC(=O)OCCCN(CC)CC)OCCCCCCCC` [Compound 1, 2-((((3-(diethylamino)propoxy)carbonyl)oxy)methyl)propane-1,3-diyl bis(4,4-bis(octyloxy)butanoate)], the “% E (encapsulation efficiency)” value in data set [1] (setting [4]) is 98%. Moreover, in data set [2] (setting [4]), the Number mean stood at 70 nm, the PDI is on record as 0.06 and the Z-avg came to 80 nm.

On to `CCCCCCCCC(CCCCCCCC)OC(=O)CCCC(=O)OCC(COC(=O)CCCC(=O)OC(CCCCCCCC)CCCCCCCC)COC(=O)OCCCN(CC)CC` [Compound 2, O,O′-(2-((((3-(diethylamino)propoxy)carbonyl)oxy)methyl)propane-1,3-diyl) di(heptadecan-9-yl) diglutarate], for which, in data set [1] (setting [5]), the “% E (encapsulation efficiency)” value turned out to be 99%. The “% E (encapsulation efficiency)” value in data set [1] (setting [4]) was 98%. Also, in data set [3], the pKa turned out to be 6.23. In data set [2] (setting [5]), the Number mean was determined as 74 nm, the PDI came out at 0.017 and the Z-avg is reported as 80 nm. Besides, in data set [2] (setting [4]), the Number mean is 65 nm and 72 nm; the PDI is given as 0.01; the Z-avg is 79 nm and 76 nm.

With `CCCCCCCCC(CCCCCCCC)OC(=O)CCCCCC(=O)OCC(COC(=O)CCCCCC(=O)OC(CCCCCCCC)CCCCCCCC)COC(=O)OCCCN(CC)CC` [Compound 3, O′1,O1-(2-((((3-(diethylamino)propoxy)carbonyl)oxy)methyl)propane-1,3-diyl) 7,7′-di(heptadecan-9-yl) di(heptanedioate)], in data set [1] (setting [4]), the “% E (encapsulation efficiency)” value was determined as 96%. Besides, in data set [2] (setting [4]), the Number mean was found to be 72 nm, the PDI was determined as 0.004 and the Z-avg is given as 86 nm.

Take `CCCCC/C=C\C/C=C\CCCCCCCC(=O)OCC(COC(=O)CCCCCC(=O)OCC(CCCC)CCCCCC)COC(=O)OCCCN(CC)CC` (stereo not shown) [Compound 4, 1-(2-butyloctyl) 7-(3-(((3-(diethylamino)propoxy)carbonyl)oxy)-2-((((9Z,12Z)-octadeca-9,12-dienoyl)oxy)methyl)propyl) heptanedioate]: the “% E (encapsulation efficiency)” value in data set [1] (setting [4]) is on record as 99%. Also, the pKa in data set [3] was 6.05. Moreover, in data set [2] (setting [4]), the Number mean is 78 nm and 83 nm; the PDI was 0.02 and 0.04; the Z-avg was 95 nm and 91 nm.

Turning to `CCCCCCC(CCCC)COC(=O)CCCCCC(=O)OCC(COC(=O)CCCCCC(=O)OCC(CCCC)CCCCCC)COC(=O)OCCCN(CC)CC` (stereo not shown) [Compound 5, 7,7′-bis(2-butyloctyl) O′1,O1-(2-((((3-(diethylamino)propoxy)carbonyl)oxy)methyl)propane-1,3-diyl) di(heptanedioate)], in data set [1] (setting [4]), the “% E (encapsulation efficiency)” value was 97%. In data set [2] (setting [4]), the Number mean is listed as 90 nm, the PDI is recorded as 0.01 and the Z-avg is 109 nm.

As for `CCCCCCCCC(CCCCCCCC)OC(=O)CCCC(=O)OCC(C)(COC(=O)CCCC(=O)OC(CCCCCCCC)CCCCCCCC)COC(=O)NCCN(CC)CC` [Compound 36, O,O′-(2-((((2-(diethylamino)ethyl)carbamoyl)oxy)methyl)-2-methylpropane-1,3-diyl) di(heptadecan-9-yl) diglutarate], in data set [1] (setting [4]), the “% E (encapsulation efficiency)” value was 98%. Also, in data set [2] (setting [4]), the Number mean is on record as 87 nm, the PDI is 0.056 and the Z-avg is reported as 103 nm.

Regarding `CCCCCCCCCCCC(=O)OCC(COC(=O)CCC(OCCCCCCCC)OCCCCCCCC)COC(=O)OCCCN(CC)CC` (stereo not shown) [Compound 41, 3-((4,4-bis(octyloxy)butanoyl)oxy)-2-((((3-(diethylamino)propoxy)carbonyl)oxy)methyl)propyl Dodecanoate], the “% E (encapsulation efficiency)” value in data set [1] (setting [4]) came to 98%. Also, in data set [2] (setting [4]), the Number mean is 75 nm, the PDI came out at 0.05 and the Z-avg came out at 83 nm.

Take `CCCCCCCCOC(CCC(=O)OCC(COC(=O)CC(CCCC)CCCCCC)COC(=O)OCCCN(CC)CC)OCCCCCCCC` (stereo not shown) [Compound 43, 3-((4,4-bis(octyloxy)butanoyl)oxy)-2-((((3-(diethylamino)propoxy)carbonyl)oxy)methyl)propyl 3-butylnonanoate]: the “% E (encapsulation efficiency)” value in data set [1] (setting [4]) is listed as 98%. Further, in data set [2] (setting [4]), the Number mean is given as 75 nm, the PDI is 0.04 and the Z-avg is 85 nm.

With `CCCCCCCCOC(CCC(=O)OCC(COC(=O)NCCN(CC)CC)COC(=O)C(CCCC)CCCCCC)OCCCCCCCC` (stereo not shown) [Compound 48, 3-((4,4-bis(octyloxy)butanoyl)oxy)-2-((((2-(diethylamino)ethyl)carbamoyl)oxy)methyl)propyl 2-butyloctanoate], the “% E (encapsulation efficiency)” value in data set [1] (setting [4]) was determined as 94%. For the same compound, in data set [2] (setting [4]), the Number mean is on record as 81 nm, the PDI is listed as 0.02 and the Z-avg worked out at 87 nm.

With `CCCCCCCCC(CCCCCCCC)CC(=O)OCCC(=O)OCC(COC(=O)CCCC(=O)OC(CCCCCCCC)CCCCCCCC)COC(=O)NCCN(CC)CC` (stereo not shown) [Compound 63, 3-(((2-(diethylamino)ethyl)carbamoyl)oxy)-2-(((3-((3-octylundecanoyl)oxy)propanoyl)oxy)methyl)propyl heptadecan-9-yl Glutarate], the “% E (encapsulation efficiency)” value in data set [1] (Table 7, LNP with 3% C13 Ether) came out at 96%. Further, in data set [2] (Table 7, LNP with 3% C13 Ether), the Number mean was determined as 73 nm, the PDI is 0.02 and the Z-avg amounted to 80 nm.

Broadly, the pKa is the pH at which an ionisable group is half protonated.
